Measurements reported in US20040044079A1, “Methods and compositions for weight control” (The IAMS Company, priority 2002, published 2004).

Tests used:
[1] = Average body condition scores of dogs on treatment diets; type: in vivo; details: for Average Body Condition Score: score 1 thin to 5 obese (Table 1); for Average Body Condition Score % Change: Day 0 to Day 84
Experimental: (§1) In phase I of the study, 80 beagle and mongrel dogs were fed a weight gain diet (36% protein, 26% fat by dry weight). The dogs were allowed to eat as much as they wished for 16 weeks. Weekly weight gain and daily food intake were measured for each dog. In phase II, the 20 dogs that were the poorest weight […] eliminated from the study. The 60 remaining dogs were randomly assigned to one of the four treatment groups. The treatment diets were the following: The dogs were given the treatment diets for 12 weeks. During this time the dogs were allowed to eat as much as they wished. Daily food intake and weekly body weight were measured. Body composition measurements were also taken, including fat, lean body mass, bone mineral content (BMC), and bone mineral density (BMD). These measurements help to determine the cause of weight loss-for instance, whether it is due to an increase in satiety and therefore reduced food intake, or an increase in thermogenesis. The measurements also allow a determination of whether weight loss results from a reduction in lean body mass or a loss of fat, or a combination of both. [table]

[2] = Whole body composition of overweight dogs fed treatment diets for 12 weeks; type: in vivo; details: for Area: absolute data; for Area (relative data) / BMD (relative data) / Lean + BMC (relative data) / Total (relative data) / BMC (relative data) / Fat (relative data) / Lean (relative data): relative change, beginning to end of phase II
Experimental: as §1, with “following: Control. Similar to EUKANUBA REDUCED FAT dry dog food, consisting of approximately 19% protein and 10% fat on a dry weight basis, with an additional 3% poultry fat to achieve a total fat content of 13%. Free fatty acid mix. Identical to the control diet, but with 3% free fatty acids in place of the 3% poultry fat. The free fatty acid was technical grade linoleic acid. Ethyl esters of fatty acid mix. Identical to control diet, but with 3% ethyl ester of fatty acid in place of the 3% poultry fat. The ethyl ester used was ethyl oleate. Lotus leaf extract. Identical to the control, but with an additional 0.3% extract of lotus leaf. Lotus leaf extract has been used in China to promote human weight loss. It is purported to help induce a sense of satiety and reduce food consumption.” for “following:”, “both.” for “both. [table]”

[3] = Weekly body weight / weight loss of dogs on treatment diets; type: in vivo; details: for weight loss: phase II, compared with control diet, FIGS. 3 and 4
Experimental: as §1, with “both.” for “both. [table]”

[4] = Daily food intake of dogs on treatment diets; type: in vivo; details: experimental period of phase II, compared among the four diets, FIGS. 1 and 2
Experimental: as §1, with “both.” for “both. [table]”

[5] = incorporated into a high fat diet fed to mice; U.S. Pat. No. 6,054,480; cited from earlier work
[6] = second Lean column (body share)

Structure (SMILES) | Average Body Condition Score ([1]; Day 0) | Average Body Condition Score % Change [1] | Average Body Condition Score ([1]; Day 84) | BMC (bone mineral content) ([2]; Day 0, absolute data) | Fat ([2]; Day 0, absolute data) | Lean ([2]; Day 0, absolute data) | Lean + BMC ([2]; Day 0, absolute data) | Total ([2]; Day 0, absolute data) | BMC ([2]; Day 0, share of whole body) | Fat ([2]; Day 0, share of whole body) | Lean ([2]; Day 0, share of whole body) | Area ([2]; Day 0, start of phase II) | BMC (bone mineral content) ([2]; Day 84, absolute data) | Fat ([2]; Day 84, absolute data) | Lean ([2]; Day 84, absolute data) | Lean + BMC ([2]; Day 84, absolute data) | Total ([2]; Day 84, absolute data) | Area ([2]; Day 84, end of phase II) | BMC ([2]; Day 84, share of whole body) | Fat ([2]; Day 84, share of whole body) | also measured
CCCCC/C=C\C/C=C\CCCCCCCC(=O)O [T × 1, linoleic acid] | 4.1 | −19.5% | 3.3 | 263.95 g | 5772.09 g | 9840.21 g | 10104.15 g | 15876.27 g | 1.67% | 35.74% | 62.58% | 402.07 cm^2 | 257.27 g | 4109.94 g | 9607.27 g | 9864.54 g | 13974.49 g | 387.39 cm^2 | 1.84% | 29.22% | Lean ([2]; Day 84, share of whole body): 68.94%; Area (relative data) [2]: −3.98%; BMD (relative data) [2]: 1.15%; Lean + BMC (relative data) [2]: −2.38%; Total (relative data) [2]: −11.75%; BMC (relative data) ([2]; first BMC column): −3.06%; Fat (relative data) ([2]; first Fat column (mass)): −28.22%; Lean (relative data) ([2]; first Lean column (mass)): −2.34%; BMC (relative data) ([2]; second BMC column (body share)): 10.16%; Fat (relative data) ([2]; second Fat column (body share)): −18.59%; Lean (relative data) [2, 6]: 10.84%; weight loss [3]: generally greatest; food intake [4]: ate intermediate amounts, slightly more than the control diet
CCCCCCCC/C=C\CCCCCCCC(=O)OCC [T × 2, ethyl oleate] | 4.0 | −7.5% | 3.7 | 253.62 g | 5956.12 g | 9667.31 g | 9920 g | 15877.02 g | 1.61% | 36.77% | 61.63% | 395.54 cm^2 | 229.74 g | 4723.12 g | 9837.15 g | 10066.89 g | 14790.01 g | 362.26 cm^2 | 1.57% | 31.44% | Lean ([2]; Day 84, share of whole body): 66.99%; Area (relative data) [2]: −7.99%; BMD (relative data) [2]: −0.58%; Lean + BMC (relative data) [2]: −4.69%; Total (relative data) [2]: −6.56%; BMC (relative data) ([2]; first BMC column): −8.58%; Fat (relative data) ([2]; first Fat column (mass)): −18.59%; Lean (relative data) ([2]; first Lean column (mass)): 2.06%; BMC (relative data) ([2]; second BMC column (body share)): −2.39%; Fat (relative data) ([2]; second Fat column (body share)): −13.43%; Lean (relative data) [2, 6]: 9.61%; average weight ([3]; 10th-12th weeks of phase II, compared with control group): average weight increased above that of the control group; weight loss [3]: lost more weight than the control group for the first 9 weeks of phase II; food intake [4]: ate intermediate amounts, slightly more than the control diet
CCCCCCCCCCCCCC(=O)O [myristic acid] | – | – | – | – | – | – | – | – | – | – | – | – | – | – | – | – | – | – | – | – | effect on body weight [5]: caused weight loss or reduction of weight gain in the mice
